For data set [1] the following is noted: for mass density: 298.15 K, 101.33 kPa, Pycnometric method.
A short description of data set [2]: refractive index (Na D-line) (dimensionless). Particulars: 298.15 K; 101.33 kPa; Liquid; Standard Abbe refractometry.

± gives the expanded uncertainty stated by the source.

Consider `Oc1ccccc1O` [1,2-benzenediol], for which, in data set [1] (Crystal), the mass density (commonly the mass of a sample divided by its volume) is listed as 1346 ± 2 kg/m3. In data set [1] (Crystal, visual observation), the Normal melting temperature is 106.10 ± 1.6 °C.
As to `CCCCOC(C)=O` [butyl ethanoate], in data set [1] (Liquid), the mass density is on record as 873.1 ± 2 kg/m3. Also, the refractive index (in general, a measure of how strongly the sample bends light) in data set [2] worked out at 1.393 ± 0.0004.
Taken in the same sequence, the figures for `CO` [methanol] were 786.1 ± 2 kg/m3 and 1.3264 ± 0.0004.

The values above are taken from the NIST ThermoML archive (doi:10.1021/acs.jced.6b00280).
